Results: patent US7879566B2, “Methods for the identification of modulators of OSGPR114 or OSGPR78 activity, and their use in the treatment of disease” (OSI Pharmaceuticals, Inc., priority 2003, dated 2011)

Key:
[1] = target: T1, OSGPR78 (Homo sapiens, UniProt P43657, I33V); assay: Yeast Fus1p-LacZ β-galactosidase reporter assay, OSGPR78-transformed yeast; format: cell-based; conditions: Galpha i and Galpha 12/13 family chimeras (13393, 15074, 13395)
T1 construct: expressed in transfected cells; host or cells: engineered yeast (GPA1 replaced by G-alpha chimeras, STE3 deleted; Fus1p-LacZ reporters)
T1 sequence (P43657 1-344 I33V): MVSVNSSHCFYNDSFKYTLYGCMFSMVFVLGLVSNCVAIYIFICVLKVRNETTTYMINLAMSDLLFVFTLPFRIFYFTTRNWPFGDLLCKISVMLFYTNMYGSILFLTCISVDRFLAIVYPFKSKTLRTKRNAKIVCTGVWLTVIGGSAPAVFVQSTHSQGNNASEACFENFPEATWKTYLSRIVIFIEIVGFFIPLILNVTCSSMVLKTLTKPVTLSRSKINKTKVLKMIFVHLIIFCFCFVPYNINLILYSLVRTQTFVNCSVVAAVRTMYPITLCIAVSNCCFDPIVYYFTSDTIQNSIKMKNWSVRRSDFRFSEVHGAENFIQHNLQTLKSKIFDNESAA
Excerpt: The yeast cell-based reporter assays have previously been described in the literature (e.g. see Miret J. J., et. al. (2002) J. Biol. Chem. 277:6881-6887; Campbell R. M., et. al. (1999) Bioorg Med. Chem. Lett. 9:2413-2418; King K., et. al. (1990) Science. 250:121-123); WO 99/14344; WO 00/12704; and U.S. Pat. No. 6,100,042). Briefly, yeast cells have been engineered such that the endogenous yeast G-alpha (GPA1) has been deleted and replaced with G-protein chimeras constructed using multiple techniques. Additionally the endogenous yeast alpha-cell GPCR, STE3 has been deleted to allow for a […] expression of a mammalian GPCR of choice. In the yeast, elements of the pheromone signaling transduction pathway, which are conserved in eukaryotic cells (for example, the mitogen-activated protein kinase pathway), drive the expression of Fus1. By placing β-galactosidase (LacZ) under the control of the Fus1 promoter (Fus1p), a system has been developed whereby receptor activation leads to an enzymatic read-out. Different yeast strains (e.g. FIG. 6) denote the presence of different G-alpha chimeras (see “yeast reporter assays” in Results section below for definitions).
Yeast cells are transformed by an adaptation of the Lithium acetate method described by Agatep et.al. (Agatep, R., et. al. (1998) Transformation of Saccharomyces cerevisiae by the lithium acetate/single-stranded carrier DNA/polyethylene glycol (LiAc/ss-DNA/PEG) protocol. Technical Tips Online, Trends Journals, Elsevier). Briefly, yeast cells are grown overnight on yeast tryptone plates (YT). Carrier single-stranded DNA (10 μg), 2 μg of each of two Fus1p-LacZ reporter plasmids (one with URA3 selection marker and one with TRP1), 2 μg of OSGPR114 or OSGPR78 in yeast expression vector (2p origin of replication) and a lithium acetate/polyethylene glycol/TE buffer is pipetted into an Epindorf tube. The yeast expression plasmid containing the receptor/no receptor control has a LEU2 marker. Yeast cells are inoculated into this mixture and the reaction proceeds at 30° C. for 60 minutes. The yeast cells are then heat-shocked at 42° C. for 15 minutes. The cells are then washed and spread on selection plates. The selection plates are synthetic defined yeast media minus LEU, URA and TRP (SD-LUT). After incubating at 30° C. for 2-3 days, colonies that grow on the selection plates are then tested in the LacZ assay.
In order to perform fluorometric enzyme assays for β-galactosidase, yeast cells were grown overnight in liquid SD-LUT media to an unsaturated concentration (i.e. the cells are still dividing and have not yet reached stationary phase). They are diluted in fresh media to an optimal assay concentration and 90 μL of yeast cells were added to 96-well black polystyrene plates (Costar). Compounds, dissolved in ethanol and diluted in a 1% BSA solution to 10× concentration, were added to the plates and the yeast are placed at 30° C. for 4 h. After 4 h, the substrate for the β-galactosidase is added to each well: The substrate may yield a fluorescent or calorimetric read-out upon the activity of the β-galactosidase. In these experiments, Fluorescein di(β-D-galactopyranoside) was used (FDG), a substrate for the enzyme that releases fluorescein, allowing a fluorometric read-out. 20 μL of 500 μM FDG was used. After incubation of the cells with the substrate for 30-60 mins, 20 μL of 1 M sodium carbonate is added to terminate the reaction and enhance the fluorescent signal. The plates were then read in a fluorometer at 485/535 nm. As an alternate read-out system, the yeast are also engineered with a Fus1p-HIS gene which means that activation of the receptor can also be measured through the growth of the yeast in a […] media.

[2] = tested on: EGFR in HCT-8 cells; assay: EGFR transactivation, Western blot with phospho-tyrosine specific antibody; format: cell-based, human; conditions: 10 μM
Excerpt: FIG. 24: Western blot showing the ability of LPA to transactivate EGFR in HCT-8 cells, as assessed using a phospho-tyrosine specific antibody.
The ability of LPA to phosphorylate ERK1/2 has been extensively described in the literature, and three principal mechanisms have been described for this effect. […] The first of these pathways involves β-arrestin recruitment and activation of Src, which then transactivates the RTK. The second of these pathways involves She which is recruited by LPA and can itself activate membrane-bound metalloproteases (e.g. ADAM10) which causes release of heparin-bound epidermal growth factor (EGF) which can then activate EGF receptor. EGF and activation of the EGF receptor is a well known proliferative pathway for many cell lines. The possibility of LPA causing transactivation of EGFR in HCT-8 cells was tested as the EGFR signaling pathway is known to be present and active in these cells. […] From the LPA-based literature, the potential for LPA to also transactivate other RTKs, such as PDGFR for example, in these cells is a very likely possibility.

[3] = tested on: SHP-2 in HCT-8 cells; assay: SHP-2 activation, phospho-specific antibody; format: cell-based, human; conditions: 10 uM
Description: FIGS. 25A-C. LPA (10 uM) activation of Shc (A), paxillin (B) and SHP-2(C) in HCT-8 cell lysates. Phospho-specific antibodies were used to detect the activated proteins.
Many of the growth and survival signaling pathways of cancer cells have been identified. […] The protein She is an adaptor protein and the protein phosphatase SHP-2 are known to link the activation of multiple growth factor receptors to their downstream signaling pathways in cancer cells (For review see Yart et al. (2003) Current Cancer Drug Targets 3:177-192). These proteins are involved in mitogenic signaling by linking growth stimuli to the Ras-mitogen-activated protein kinase cascade and the PI3K survival pathway. […] Additionally, paxillin is a scaffold molecule intricately involved in the regulation of focal adhesions in cancer cells. It is therefore involved in the regulation of cell spreading and motility and is controlled by a multitude of signaling moieties including growth factors, and their downstream signaling molecules. Paxillin recruits these signaling components into specific cell compartments known as focal adhesions (For review, see Schaller (2001) Oncogene 20:6459-72). […] By treating HCT-8 cells with LPA (10 uM), the effect of LPA on the phosphorylation of paxillin was measured using activation state specific antibodies ([…]).

response in yeast G-alpha chimera strains [1]: optimal for LPA response
Substance: lysophosphatidic acid [LPA]
EGFR transactivation [2]: capable of transactivating EGFR
phosphorylation of SHP-2 [3]: induced the phosphorylation
